Tests used:
MAGL = biological target: T1, MAGL (Mus musculus, UniProt O35678); assay: In vitro competitive activity-based protein profiling, mouse MAGL; assay type: biochemical; settings: for inhibition at 1 µM: read-out: MAGL % inh. 1 μM (mouse)
T1 construct: mouse brain membrane fraction or cell lysates for mouse assays; from tissue
T1 sequence (O35678 1-303): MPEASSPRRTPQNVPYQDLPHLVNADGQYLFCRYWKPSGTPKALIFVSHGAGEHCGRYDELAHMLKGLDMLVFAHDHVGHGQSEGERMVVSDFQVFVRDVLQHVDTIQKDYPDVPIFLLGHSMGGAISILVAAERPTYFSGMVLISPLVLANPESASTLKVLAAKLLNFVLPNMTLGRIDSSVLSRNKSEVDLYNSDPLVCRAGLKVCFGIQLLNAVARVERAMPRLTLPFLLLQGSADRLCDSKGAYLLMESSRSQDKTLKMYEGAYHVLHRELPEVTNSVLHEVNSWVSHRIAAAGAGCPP
How it was run: (§1)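 Mouse brain membranes or cell lysates (mouse) and human prefrontal cortex or cell membrane fractions (human), 1.0 mg/mL protein, preincubated with inhibitor 30 min at 37 °C, then FP-Rh or HT-01 probe 30 min at 37 °C. SDS-PAGE; MAGL and FAAH activity from in-gel fluorescence band intensity.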

FAAH = biological target: T2, FAAH (Mus musculus, UniProt O08914); assay: In vitro competitive activity-based protein profiling, mouse FAAH; assay type: biochemical; settings: for inhibition at 1 µM: read-out: FAAH % inh. 1 μM (mouse)
T2 construct: mouse brain membrane fraction or cell lysates for mouse assays; from tissue
T2 sequence (O08914 1-579): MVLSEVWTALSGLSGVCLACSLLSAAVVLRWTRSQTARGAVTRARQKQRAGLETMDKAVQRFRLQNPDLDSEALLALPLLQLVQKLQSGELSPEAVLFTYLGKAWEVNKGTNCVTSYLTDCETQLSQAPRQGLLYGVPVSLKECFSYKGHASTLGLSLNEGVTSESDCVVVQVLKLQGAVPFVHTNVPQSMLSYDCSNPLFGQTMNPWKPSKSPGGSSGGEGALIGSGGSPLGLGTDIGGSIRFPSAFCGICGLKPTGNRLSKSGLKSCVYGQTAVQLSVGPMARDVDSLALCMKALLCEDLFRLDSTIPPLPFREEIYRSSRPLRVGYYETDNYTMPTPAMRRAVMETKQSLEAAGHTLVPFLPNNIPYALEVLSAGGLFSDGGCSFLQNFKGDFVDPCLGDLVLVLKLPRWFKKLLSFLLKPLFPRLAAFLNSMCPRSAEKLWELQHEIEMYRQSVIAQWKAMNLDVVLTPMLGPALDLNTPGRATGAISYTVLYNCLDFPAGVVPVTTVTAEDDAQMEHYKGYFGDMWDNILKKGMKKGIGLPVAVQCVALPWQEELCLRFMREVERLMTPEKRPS
How it was run: as §1

| Structure (SMILES) | IC50 (MAGL) | inhibition at 1 µM (MAGL) | IC50 (FAAH) | inhibition at 1 µM (FAAH) |
| --- | --- | --- | --- | --- |
| O=C(N1CCC2(CCN(Cc3ccc(N4CCOCC4)cc3Cl)C2)C1)n1cc(Cl)cn1 (stereo not drawn) [Example 137, (4-chloro-1H-pyrazol-1-yl)(7-(2-chloro-4-morpholinobenzyl)-2,7-diazaspiro[4.4]nonan-2-yl)methanone] | ≤ 100 nM | ≥ 75% | ≤ 100 nM | ≥ 75% |
| Cc1cc(N2CCOCC2)ccc1CN1CCC2(CCN(C(=O)n3cc(Cl)cn3)C2)C1 (stereo not drawn) [Example 138, (4-chloro-1H-pyrazol-1-yl)(7-(2-methyl-4-morpholinobenzyl)-2,7-diazaspiro[4.4]nonan-2-yl)methanone] | 100 to 1000 nM | ≥ 75% | ≤ 100 nM | ≥ 75% |
| Cc1cccc(CN2CC3CN(C(=O)n4cc(C(F)(F)F)cn4)CC3C2)c1 (stereo not drawn) [Example 141, (5-(3-methylbenzyl)hexahydropyrrolo[3,4-c]pyrrol-2(1H)-yl)(4-(trifluoromethyl)-1H-pyrazol-1-yl)methanone] | ≤ 100 nM | ≥ 75% | ≤ 100 nM | ≥ 75% |
| COc1cccc(CN2CC3CN(C(=O)n4cc(C(F)(F)F)cn4)CC3C2)c1 (stereo not drawn) [Example 142, (5-(3-methoxybenzyl)hexahydropyrrolo[3,4-c]pyrrol-2(1H)-yl)(4-(trifluoromethyl)-1H-pyrazol-1-yl)methanone] | ≤ 100 nM | ≥ 75% | ≤ 100 nM | ≥ 75% |
| O=C(N1CC2CN(Cc3cccc(C(F)(F)F)c3)CC2C1)n1cc(C(F)(F)F)cn1 (stereo not drawn) [Example 143, (4-(trifluoromethyl)-1H-pyrazol-1-yl)(5-(3-(trifluoromethyl)benzyl)hexahydropyrrolo[3,4-c]pyrrol-2(1H)-yl)methanone] | ≤ 100 nM | ≥ 75% | ≤ 100 nM | ≥ 75% |
| O=C(N1CC2CN(Cc3cccc(N4CCCC4)c3)CC2C1)n1cc(C(F)(F)F)cn1 (stereo not drawn) [Example 144, (5-(3-(pyrrolidin-1-yl)benzyl)hexahydropyrrolo[3,4-c]pyrrol-2(1H)-yl)(4-(trifluoromethyl)-1H-pyrazol-1-yl)methanone] | ≤ 100 nM | ≥ 75% | ≤ 100 nM | ≥ 75% |
| O=C(N1CC2CN(Cc3ccc(F)cc3)CC2C1)n1cc(C(F)(F)F)cn1 (stereo not drawn) [Example 146, (5-(4-fluorobenzyl)hexahydropyrrolo[3,4-c]pyrrol-2(1H)-yl)(4-(trifluoromethyl)-1H-pyrazol-1-yl)methanone] | ≤ 100 nM | ≥ 75% | ≤ 100 nM | ≥ 75% |
| O=C(N1CC2CN(Cc3ccccc3Cl)CC2C1)n1cc(C(F)(F)F)cn1 (stereo not drawn) [Example 151, (5-(2-chlorobenzyl)hexahydropyrrolo[3,4-c]pyrrol-2(1H)-yl)(4-(trifluoromethyl)-1H-pyrazol-1-yl)methanone] | ≤ 100 nM | ≥ 75% | ≤ 100 nM | ≥ 75% |
| O=C(N1CC2CN(Cc3ccccc3F)CC2C1)n1cc(C(F)(F)F)cn1 (stereo not drawn) [Example 152, (5-(2-fluorobenzyl)hexahydropyrrolo[3,4-c]pyrrol-2(1H)-yl)(4-(trifluoromethyl)-1H-pyrazol-1-yl)methanone] | ≤ 100 nM | ≥ 75% | ≤ 100 nM | ≥ 75% |
| COc1ccccc1CN1CC2CN(C(=O)n3cc(C(F)(F)F)cn3)CC2C1 (stereo not drawn) [Example 154, (5-(2-methoxybenzyl)hexahydropyrrolo[3,4-c]pyrrol-2(1H)-yl)(4-(trifluoromethyl)-1H-pyrazol-1-yl)methanone] | ≤ 100 nM | ≥ 75% | ≤ 100 nM | ≥ 75% |
| O=C(N1CC2CN(Cc3ccccc3N3CCCC3)CC2C1)n1cc(C(F)(F)F)cn1 (stereo not drawn) [Example 156, (5-(2-(pyrrolidin-1-yl)benzyl)hexahydropyrrolo[3,4-c]pyrrol-2(1H)-yl)(4-(trifluoromethyl)-1H-pyrazol-1-yl)methanone] | ≤ 100 nM | ≥ 75% | 100 to 1000 nM | ≥ 75% |
| CN(Cc1ccc(Oc2ccccc2)cc1)[C@H]1C[C@@H]2CN(C(=O)n3cc(Cl)cn3)C[C@@H]2C1 [Example 159, (4-chloro-1H-pyrazol-1-yl)(trans-5-(methyl(4-phenoxybenzyl)amino)hexahydrocyclopenta[c]pyrrol-2(1H)-yl)methanone] |  | ≥ 75% |  | ≥ 75% |

More lines, now with the values ahead:

| IC50 (MAGL) | inhibition at 1 µM (MAGL) | IC50 (FAAH) | inhibition at 1 µM (FAAH) | Structure (SMILES) |
| --- | --- | --- | --- | --- |
| ≤ 100 nM | ≥ 75% | ≤ 100 nM | ≥ 75% | O=C(N1CC2CN(Cc3cccc(N4CCOCC4)c3)CC2C1)n1cc(C(F)(F)F)cn1 (stereo not drawn) [Example 145, (5-(3-morpholinobenzyl)hexahydropyrrolo[3,4-c]pyrrol-2(1H)-yl)(4-(trifluoromethyl)-1H-pyrazol-1-yl)methanone] |
| ≤ 100 nM | ≥ 75% | ≤ 100 nM | ≥ 75% | Cc1ccc(CN2CC3CN(C(=O)n4cc(C(F)(F)F)cn4)CC3C2)cc1 (stereo not drawn) [Example 147, (5-(4-methylbenzyl)hexahydropyrrolo[3,4-c]pyrrol-2(1H)-yl)(4-(trifluoromethyl)-1H-pyrazol-1-yl)methanone] |
| 100 to 1000 nM | ≥ 75% | ≤ 100 nM | ≥ 75% | COc1ccc(CN2CC3CN(C(=O)n4cc(C(F)(F)F)cn4)CC3C2)cc1 (stereo not drawn) [Example 148, (5-(4-methoxybenzyl)hexahydropyrrolo[3,4-c]pyrrol-2(1H)-yl)(4-(trifluoromethyl)-1H-pyrazol-1-yl)methanone] |
| 100 to 1000 nM | ≥ 75% | ≤ 100 nM | ≥ 75% | O=C(N1CC2CN(Cc3cccc(Cl)c3)CC2C1)n1cc(C(F)(F)F)cn1 (stereo not drawn) [Example 149, (5-(3-chlorobenzyl)hexahydropyrrolo[3,4-c]pyrrol-2(1H)-yl)(4-(trifluoromethyl)-1H-pyrazol-1-yl)methanone] |
| ≤ 100 nM | ≥ 75% | ≤ 100 nM | ≥ 75% | O=C(N1CC2CN(Cc3cccc(F)c3)CC2C1)n1cc(C(F)(F)F)cn1 (stereo not drawn) [Example 150, (5-(3-fluorobenzyl)hexahydropyrrolo[3,4-c]pyrrol-2(1H)-yl)(4-(trifluoromethyl)-1H-pyrazol-1-yl)methanone] |
| ≤ 100 nM | ≥ 75% | ≤ 100 nM | ≥ 75% | Cc1ccccc1CN1CC2CN(C(=O)n3cc(C(F)(F)F)cn3)CC2C1 (stereo not drawn) [Example 153, (5-(2-methylbenzyl)hexahydropyrrolo[3,4-c]pyrrol-2(1H)-yl)(4-(trifluoromethyl)-1H-pyrazol-1-yl)methanone] |
| ≤ 100 nM | ≥ 75% | ≤ 100 nM | ≥ 75% | O=C(N1CC2CN(Cc3ccccc3C(F)(F)F)CC2C1)n1cc(C(F)(F)F)cn1 (stereo not drawn) [Example 155, (4-(trifluoromethyl)-1H-pyrazol-1-yl)(5-(2-(trifluoromethyl)benzyl)hexahydropyrrolo[3,4-c]pyrrol-2(1H)-yl)methanone] |
| ≤ 100 nM | ≥ 75% | 100 to 1000 nM | ≥ 75% | O=C(N1CC2CN(Cc3ccccc3N3CCOCC3)CC2C1)n1cc(C(F)(F)F)cn1 (stereo not drawn) [Example 157, (5-(2-morpholinobenzyl)hexahydropyrrolo[3,4-c]pyrrol-2(1H)-yl)(4-(trifluoromethyl)-1H-pyrazol-1-yl)methanone] |
|  | ≥ 75% |  | ≥ 75% | CN(Cc1ccc(Oc2ccccc2)cc1)[C@@H]1C[C@@H]2CN(C(=O)n3cc(Cl)cn3)C[C@@H]2C1 [Example 158, (4-chloro-1H-pyrazol-1-yl)(cis-5-(methyl(4-phenoxybenzyl)amino)hexahydrocyclopenta[c]pyrrol-2(1H)-yl)methanone] |
|  | ≥ 75% |  | ≥ 75% | CN(Cc1ccc(Oc2cccnc2)cc1)[C@@H]1C[C@@H]2CN(C(=O)n3cc(Cl)cn3)C[C@@H]2C1 [Example 160, (4-chloro-1H-pyrazol-1-yl)(cis-5-(methyl(4-(pyridin-3-yloxy)benzyl)amino)hexahydrocyclopenta[c]pyrrol-2(1H)-yl)methanone] |
|  | ≥ 75% |  | ≥ 75% | CN(Cc1ccc(Oc2cccnc2)cc1)[C@H]1C[C@@H]2CN(C(=O)n3cc(Cl)cn3)C[C@@H]2C1 [Example 161, (4-chloro-1H-pyrazol-1-yl)(trans-5-(methyl(4-(pyridin-3-yloxy)benzyl)amino)hexahydrocyclopenta[c]pyrrol-2(1H)-yl)methanone] |

Reference: patent publication US10385057B2, “Pyrazole compounds and methods of making and using same” (Lundbeck La Jolla Research Center, Inc., priority 2015, dated 2019)
